Measurements published in patent publication US8581005B2, “Mitochondrial inhibitors to treat human disease” (Albert Einstein College of Medicine of Yeshiva University, priority 2009, dated 2013).
Where two headings read alike, the source gives them in different places.

What was measured:
[1] = system: Sacchromyces cerevisiae strain J47D; test: In vitro cell proliferation assay (yeast proliferation); format: cell-based; design: key to Inhibition of yeast proliferation: (+) Complete inhibition (no proliferation); (−) no inhibition (normal proliferation); (+/−) partial inhibition; (i) compound insoluble
Experimental: (§1) Sacchromyces cerevisiae strain J47D in log phase growth, was plated in 96 well dishes at 1.5×10^4 cells/well in YEPD media. Magmas inhibitors were diluted in DMSO and added at various concentrations (range 0 mM to 1 mM) to each well in triplicate at a final DMSC concentration of 1%. Samples were cultured at 30° C. in a Bioscreen C MBR incubator (Growth Curves USA, Piscataway, N.J.) and optical density (OD) readings were measured every 30 minutes for the indicated time in the plots. Cell proliferation data was analyzed and plotted using Microsoft Excel. Standard deviations were smaller than 2% of the mean OD value (n=3), and each experiment was performed at least two independent times.
Reduced Magmas function caused by siRNA knockdown or by mutations in Magmas causes growth inhibition and cell cycle arrest. To assay whether the compounds were active, their ability to inhibit yeast proliferation was measured. The results obtained in yeast are equivalent to those found in mammalian cells in part because the human homolog is fully functional in yeast and the target region is identical across all eukaryotic species.

HUVEC = test: Viability of human cells, trypan blue dye exclusion; format: cell-based; design: key to viability of human cells: (+) Viable; (−) dead; (+/−) partial viability; details: for viability of human cells: HUVEC, 48 hrs
Experimental: (§2) Cell lines derived from human hematological malignancies and glioblastoma multiforme, and human umbilical vascular endothelial cells (HUVEC) were cultured in standard media with the concentrations of 9 indicated in Table 3. Viable cells were scored by trypan blue dye exclusion at 48 hrs. The HUVEC population consisted of a pool of primary cells isolated from the blood vessels of 4 umbilical cords. Each cell type was tested in duplicate in at least three independent experiments.

[2] = system: yeast strains containing several different Magmas mutations expressed on a plasmid; test: Yeast proliferation assay with Magmas mutations and over-expression; format: cell-based
Excerpt: Mutations in Magmas were introduced by error prone PCR and the changes were identified by sequencing. Only genes with a single amino acid change were further analyzed. The genes encoding the mutations were spliced into plasmid pRS315 containing the selectable […] marker (leu) and transfected into yeast where the wt genomic copy was replaced by a his cassette and the essential Magmas activity was maintained by wt Magmas in the plasmid pRS316 (ura). The plasmid containing the wt Magmas gene was lost by selection in media containing FOA, resulting in yeast strains only expressing the mutant gene. Total yeast protein from each of the strains was separated by SDS-PAGE, and transferred to nitrocellulose membranes. The membranes were sequentially incubated with rabbit anti-Magmas antibody, HRP conjugated goat anti-rabbit antibody and chemiluminescence reagent. The signal was captured with a Fujifilm LAS-3000 Imager and the data analyzed with ImageGage software.
as §1
All of these stains express similar levels of Magmas protein, which is approximately 4 fold higher than the haploid control (Wt genomic).

purified mouse Magmas = target: T1, purified mouse Magmas (Mus musculus, UniProt Q9CQV1); test: Binding to Magmas by fluorescence emission spectrum (tyrosine); details: murine Magmas, FIG. 3B; read-out: calculated Kd
T1 sequence (Q9CQV1 1-125): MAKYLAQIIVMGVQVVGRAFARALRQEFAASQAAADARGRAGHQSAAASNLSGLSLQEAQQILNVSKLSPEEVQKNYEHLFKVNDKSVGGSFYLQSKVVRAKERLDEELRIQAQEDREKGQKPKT
Experimental: (§3) The binding of 9 to both purified yeast and mouse Magmas was evaluated. The fluorescence spectrum of tryptophan was measured for the binding to the yeast target and the fluorescence spectrum of tyrosine was measured for the binding to the murine target. The spectral shift observed at varying concentrations of 9 was used to determine the binding constant (FIG. 3).

HeLa cells = test: Mitotracker Red mitochondrial activity; format: cell-based; details: 6 μM for 12 hours
Experimental: HeLa cells were treated with 6 μM Compound 9 for 12 hours. The cells were then incubated with Mitotracker Red (100 nM) for 15 minutes, washed, fixed with formaldehyde, and examined by fluorescent microscopy. […] This confirms that the invention affects mitochondrial activity.

purified yeast Magmas = target: T2, purified yeast Magmas (Saccharomyces cerevisiae, UniProt P42949); test: Binding to Magmas by fluorescence emission spectrum (tryptophan)
T2 sequence (P42949 1-149): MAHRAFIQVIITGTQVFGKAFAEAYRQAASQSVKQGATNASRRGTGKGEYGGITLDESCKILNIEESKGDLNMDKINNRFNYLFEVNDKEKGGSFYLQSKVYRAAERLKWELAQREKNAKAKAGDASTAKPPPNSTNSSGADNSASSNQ
Experimental: as §3

Toledo = test: Viability of human cells, trypan blue dye exclusion; format: cell-based; design: key: (+) Viable; (−) dead; (+/−) partial viability; details: 48 hrs
Experimental: as §2

K562 = test: as above; format: cell-based; design: key: (+) Viable; (−) dead; (+/−) partial viability; details: 48 hrs
Experimental: as §2

U87 = test: as above; format: cell-based; design: key: (+) Viable; (−) dead; (+/−) partial viability; details: 48 hrs
Experimental: as §2

Karpas = test: as above; format: cell-based; design: key: (+) Viable; (−) dead; (+/−) partial viability; details: 48 hrs
Experimental: as §2

U118 = test: as above; format: cell-based; design: key: (+) Viable; (−) dead; (+/−) partial viability; details: 48 hrs
Experimental: as §2

Pfeiffer = test: as above; format: cell-based; design: key: (+) Viable; (−) dead; (+/−) partial viability; details: 48 hrs
Experimental: as §2

SMILES: c1ccc(C2=Nc3ccccc3OC2)cc1 [Compound 1]
- Effect on yeast proliferation ([1]; doses up to and including 6 μM): not effective

SMILES: O=[N+]([O-])c1ccc2c(c1)N=C(c1ccccc1)CO2 [Compound 2]
- Effect on yeast proliferation ([1]; doses up to and including 6 μM): not effective

SMILES: Clc1ccc2c(c1)N=C(c1ccccc1)CO2 [Compound 3]
- Effect on yeast proliferation ([1]; doses up to and including 6 μM): not effective

SMILES: Clc1ccc2c(c1)C=CC(c1ccccc1)O2 (stereo not drawn) [Compound 4]
- Inhibition of yeast proliferation ([1]; 1 μM): −
- Inhibition of yeast proliferation ([1]; 10 μM): −
- Inhibition of yeast proliferation ([1]; 100 μM): +
- Inhibition of yeast proliferation ([1]; 1 mM): i

SMILES: O=[N+]([O-])c1ccc2c(c1)C=CC(c1ccccc1)O2 (stereo not drawn) [Compound 5]
- Inhibition of yeast proliferation ([1]; 1 μM): −
- Inhibition of yeast proliferation ([1]; 10 μM): −
- Inhibition of yeast proliferation ([1]; 100 μM): −
- Inhibition of yeast proliferation ([1]; 1 mM): −
- Effect on yeast proliferation ([1]; all concentrations): inactive

SMILES: Brc1ccc2c(c1)C=CC(c1ccccc1)O2 (stereo not drawn) [Compound 6]
- Inhibition of yeast proliferation ([1]; 1 μM): −
- Effect on yeast proliferation ([1]; 10 μM): partially inhibitory
- Inhibition of yeast proliferation ([1]; 10 μM): +/−
- Inhibition of yeast proliferation ([1]; 100 μM): +
- Inhibition of yeast proliferation ([1]; 1 mM): +

SMILES: Oc1cccc2c1OC(c1ccccc1)C=C2 (stereo not drawn) [Compound 7]
- Effect on yeast proliferation ([1]; doses up to and including 6 μM): not effective

SMILES: CCCCCCCCC1C=Cc2cc([N+](=O)[O-])ccc2O1 (stereo not drawn) [Compound 8]
- Inhibition of yeast proliferation ([1]; 1 μM): −
- Inhibition of yeast proliferation ([1]; 10 μM): −
- Inhibition of yeast proliferation ([1]; 100 μM): +
- Inhibition of yeast proliferation ([1]; 1 mM): i

SMILES: CCC1=C(C)/C(=C/c2ccc(C(=O)NC(=N)N)cc2)CCC1(C)C [Compound 9]
- viability of human cells (HUVEC; 2 um): +
- viability of human cells (HUVEC; 4 um): +
- viability of human cells (HUVEC; 6 um): +
- viability of human cells (HUVEC; 8 um): +
- viability of human cells (HUVEC; 12 um): +
- viability of human cells (HUVEC; 16 um): +
- viability of human cells (HUVEC; 20 um): +/−
- viability of human cells (HUVEC; 24 um): −
- sensitivity of tumor cell lines relative to normal primary cells (HUVEC) (HUVEC; tumor cell lines vs HUVEC, viability at 48 hrs): 4 to 5 fold
- Sensitivity of yeast to Compound 9 ([2]; Magmas A104S): increased sensitivity
- Sensitivity of yeast to Compound 9 ([2]; Magmas N84T vs Wt plasmid): increased resistance
- Sensitivity of yeast to Compound 9 ([2]; over-expression of Magmas: Wt plasmid vs Wt genomic): reduces sensitivity
- Inhibition of yeast proliferation ([1]; 1 μM): −
- Effect on yeast proliferation ([1]; 4 μM): significant and reproducible inhibition
- lengthening of the time to half maximal growth ([1]; 4 μM): 1.8 times
- Effect on yeast proliferation ([1]; 10 μM): fully inhibited growth
- Inhibition of yeast proliferation ([1]; 10 μM): +
- Inhibition of yeast proliferation ([1]; 100 μM): +
- Inhibition of yeast proliferation ([1]; 1 mM): +
- Kd (purified mouse Magmas): 36 µM
- Mitotracker Red intensity (HeLa cells): reduced
- Kd (purified yeast Magmas; yeast Magmas, FIG. 3A, read-out: calculated Kd): 33 µM
- Kd (purified yeast Magmas; yeast target, read-out: binding constant): 34 ± 2 µM
- viability of human cells (Toledo; 2 um): +/−
- viability of human cells (Toledo; 4 um): +/−
- viability of human cells (Toledo; 6 um): −
- viability of human cells (Toledo; 8 um): −
- viability of human cells (Toledo; 12 um): −
- viability of human cells (Toledo; 16 um): −
- viability of human cells (Toledo; 20 um): −
- viability of human cells (Toledo; 24 um): −
- viability of human cells (K562; K562, 2 um): +/−
- viability of human cells (K562; K562, 4 um): +/−
- viability of human cells (K562; K562, 6 um): −
- viability of human cells (K562; K562, 8 um): −
- viability of human cells (K562; K562, 12 um): −
- viability of human cells (K562; K562, 16 um): −
- viability of human cells (K562; K562, 20 um): −
- viability of human cells (K562; K562, 24 um): −
- viability of human cells (U87; U87, 2 um): +/−
- viability of human cells (U87; U87, 4 um): +/−
- viability of human cells (U87; U87, 6 um): −
- viability of human cells (U87; U87, 8 um): −
- viability of human cells (U87; U87, 12 um): −
- viability of human cells (U87; U87, 16 um): −
- viability of human cells (U87; U87, 20 um): −
- viability of human cells (U87; U87, 24 um): −
- viability of human cells (Karpas; 2 um): +/−
- viability of human cells (Karpas; 4 um): +/−
- viability of human cells (Karpas; 6 um): +/−
- viability of human cells (Karpas; 8 um): −
- viability of human cells (Karpas; 12 um): −
- viability of human cells (Karpas; 16 um): −
- viability of human cells (Karpas; 20 um): −
- viability of human cells (Karpas; 24 um): −
- viability of human cells (U118; U118, 2 um): +/−
- viability of human cells (U118; U118, 4 um): −
- viability of human cells (U118; U118, 6 um): −
- viability of human cells (U118; U118, 8 um): −
- viability of human cells (U118; U118, 12 um): −
- viability of human cells (U118; U118, 16 um): −
- viability of human cells (U118; U118, 20 um): −
- viability of human cells (U118; U118, 24 um): −
- viability of human cells (Pfeiffer; 2 um): +/−
- viability of human cells (Pfeiffer; 4 um): +/−
- viability of human cells (Pfeiffer; 6 um): −
- viability of human cells (Pfeiffer; 8 um): −
- viability of human cells (Pfeiffer; 12 um): −
- viability of human cells (Pfeiffer; 16 um): −
- viability of human cells (Pfeiffer; 20 um): −
- viability of human cells (Pfeiffer; 24 um): −
